Data taken from US20050192281A1, “Nitrone compounds, prodrugs and pharmaceuticals compositons of the same to treat human disorders” (priority 2003, published 2005).
pEC50: −log10 of the molar value. Where a name gives a salt, the structure may show the parent alone.

Assay: Free radical-scavenging/antioxidant assay (DPPH)
Format: biochemical
Conditions: 50 μM DPPH in 80% methanol, absorbance at 520 nm, 24 h time point (steady state)
Protocol: Nitrone compounds of the present invention were tested for their free-radical scavenging/antioxidant activity in an in vitro assay that was accepted by those skilled in the art as a model for conditions involving the generation of free radicals. The assay was based on a reaction between a free-radical donor, 2,2-diphenyl-1-picrylhydrazyl (DPPH), and a radical scavenger/antioxidant to be tested for free-radical scavenging activity. Upon donation of the free-radical electron to the purported radical scavenger, the peak vwasible absorbance of DPPH (515-520 nm) decreases so that optical density readings at thwas part of the vwasual spectrum reflect the progression of the following reaction: DPPH•+AH →DPPH—H+A• where AH was a hypothetical radical scavenger/antioxidant. The assay was based on a protocol originally detailed in Brand-Williams, W. et al., 1995, Use of a Free Radical Method to Evaluate Antioxidant Activity, Lebensm. Wwass. Technol., 28:25-30, with further modifications described in L. R. Fukumoto and G. Mazza, 2000, Assessing Antioxidant and Prooxidant Activities of Phenolic Compounds, J. Agric. Food Chem., 48:3597-3604.
The antioxidant assay was performed using Perkin-Elmer 96-well, clear-bottom, black-wall plates (ordered from E & K Scientific Products) and a Tecan Safire absorbance plate reader. The positive controls were Trolox (6-hydroxy-2,5,7,8-tetramethylchromane-2-carboxylic acid, Sigma-Aldrich), BHA (2(3)-tert-butylhydroquinone monomethyl ether, Sigma-Aldrich), PBN (C-(phenyl)-N-(tert-butyl)nitrone, Sigma-Aldrich) and S-PBN (C-(2-sulfophenyl)-N-(tert-butyl)nitrone, sodium salt, prepwered according to E. G. Janzen and R. V. Shetty, 1979, Tetrahedron Lett., 35: 3229-32), and the negative control (i.e., vehicle) was DMSO. In brief, 2 μL of 100×DMSO stock of the desired final concentration of each control or nitrone compound to be tested in the same batch was added to a separate well. To each well was then added 198 μL of a freshly made 50 μM DPPH (Sigma-Aldrich) solution in 80% methanol using a multi-channel pipette. The absorbance was immediately read on the plate reader at 520 nm and thereafter read periodically to assess kinetics until all reactions reached completion (i.e., steady state). Since the steady-state point was 24 h, the assay results were shown from the 24 h time point. The absorbance at 520 nm (OD) was plotted versus the concentrations of the controls and nitrone compounds to assess dose-response and interpolate the EC50 values of the controls and test compounds.

Row | Compound | pEC50
1 | COc1ccc(O)c(C(C)(C)C)c1 [BHA, 2(3)-tert-butylhydroquinone monomethyl ether, reference compound] | 4.30 to 5.00
2 | CC(C)(C)/[N+]([O-])=C/COc1ccccc1 [Example 1, N-tert-Butyl-C-(phenoxymethyl)nitrone] | 4.30 to 5.00
3 | [O-]/[N+](=C\COc1ccccc1)C1CCCCC1 [Example 2, N-Cyclohexyl-C-(phenoxymethyl)nitrone] | 4.00 to 4.30
4 | [O-]/[N+](=C\COc1ccccc1)Cc1ccccc1 [Example 3, N-Benzyl-C-(phenoxymethyl)nitrone] | 4.30 to 5.00
5 | COc1ccc(OC/C=[N+](\[O-])C(C)(C)C)cc1 [Example 4, N-tert-Butyl-C-[(4-methoxy-phenoxy)methyl]nitrone] | 4.30 to 5.00
6 | COc1ccc(OC/C=[N+](\[O-])C2CCCCC2)cc1 [Example 5, N-Cyclohexyl-C-[(4-methoxy-phenoxy)methyl]nitrone] | > 5.00
7 | COc1ccc(OC/C=[N+](\[O-])Cc2ccccc2)cc1 [Example 6, N-Benzyl-C-[(4-methoxy-phenoxy)methyl]nitrone] | > 5.00
8 | Cc1ccc(C(C)C)c(OC/C=[N+](\[O-])C(C)(C)C)c1 [Example 7, N-tert-Butyl-C-[(2-isopropyl-5-methyl-phenoxy)methyl]nitrone] | 4.00 to 4.30
9 | Cc1ccc(C(C)C)c(OC/C=[N+](\[O-])C2CCCCC2)c1 [Example 8, N-Cyclohexyl-C-[(2-isopropyl-5-methyl-phenoxy)methyl]nitrone] | 4.30 to 5.00
10 | Cc1ccc(C(C)C)c(OC/C=[N+](\[O-])Cc2ccccc2)c1 [Example 9, N-Benzyl-C-[(2-isopropyl-5-methyl-phenoxy)methyl]nitrone] | 4.00 to 4.30
11 | Cc1ccc(SC/C=[N+](\[O-])C(C)(C)C)cc1 [Example 10, N-tert-Butyl-C-[(4-methyl-thiophenoxy)methyl]nitrone] | 4.30 to 5.00
12 | CC(C)(C)/[N+]([O-])=C/COc1ccccn1 [Example 11, N-tert-Butyl-C-(pyridin-2-yloxy)methyl nitrone] | 4.30 to 5.00
13 | [O-]/[N+](=C\COc1ccccn1)C1CCCCC1 [Example 12, N-Cyclohexyl-C-(pyridin-2-yloxy)methyl nitrone] | > 5.00
14 | [O-]/[N+](=C\COc1ccccn1)Cc1ccccc1 [Example 13, N-Benzyl-C-(pyridin-2-yloxy)methyl nitrone] | > 5.00
15 | CC(C)(C)/[N+]([O-])=C/COc1nccc2ccccc12 [Example 14] | 4.00 to 4.30
16 | [O-]/[N+](=C\COCc1ccccc1)C1CCCCC1 [Example 15, N-Cyclohexyl-C-(benzyloxy)methyl nitrone] | 4.30 to 5.00
17 | [O-]/[N+](=C\COCc1ccccc1)Cc1ccccc1 [Example 16, N-Benzyl-C-(benzyloxy)methyl nitrone] | 4.00 to 4.30
18 | CC(C)(C)/[N+]([O-])=C/CCOc1ccccc1 [Example 17, N-tert-Butyl-C-2-(phenoxy)ethyl nitrone] | 4.30 to 5.00
19 | [O-]/[N+](=C\CCOc1ccccc1)C1CCCCC1 [Example 18, N-Cyclohexyl-C-2-(phenoxy)ethyl nitrone] | < 3.00
20 | [O-]/[N+](=C\CCOc1ccccc1)Cc1ccccc1 [Example 19, N-Benzyl-C-2-(phenoxy)ethyl nitrone] | 3.00 to 4.00
21 | CC(C)(C)/[N+]([O-])=C/CCSc1ccccc1 [Example 20, N-tert-Butyl-C-2-(phenylsulfanyl)ethyl nitrone] | > 5.00
22 | [O-]/[N+](=C\CCSc1ccccc1)Cc1ccccc1 [Example 21, N-Benzyl-C-2-(phenylsulfanyl)ethyl nitrone] | 4.30 to 5.00
23 | CC(C/C=[N+](\[O-])C(C)(C)C)Sc1ccccc1 (stereo not drawn) [Example 22, N-tert-Butyl-C-2-(phenylsulfanyl)propyl nitrone] | > 5.00
24 | CC(C/C=[N+](\[O-])C1CCCCC1)Sc1ccccc1 (stereo not drawn) [Example 23, N-Cyclohexyl-C-2-(phenylsulfanyl)propyl nitrone] | 4.30 to 5.00
25 | CC(C/C=[N+](\[O-])Cc1ccccc1)Sc1ccccc1 (stereo not drawn) [Example 24, N-Benzyl-C-2-(phenylsulfanyl)propyl nitrone] | > 5.00
26 | CC(C)(C)/[N+]([O-])=C/CCOc1ccccn1 [Example 25, N-tert-Butyl-C-2-(pyridin-2-yloxy)ethyl nitrone] | 4.30 to 5.00
27 | CC(C)(C)/[N+]([O-])=C/COCc1ccccc1 [Example 26, N-tert-Butyl-C-(benzyloxy)methyl nitrone] | 4.30 to 5.00
28 | CC(C)(C)/[N+]([O-])=C/c1ccccc1 [PBN, C-(phenyl)-N-(tert-butyl)nitrone, reference compound] | < 3.00
29 | CC(C)(C)/[N+]([O-])=C/c1ccccc1S(=O)(=O)O [SPBN, C-(2-sulfophenyl)-N-(tert-butyl)nitrone, sodium salt, reference compound] | < 3.00
30 | Cc1c(C)c2c(c(C)c1O)CCC(C)(C(=O)O)O2 (stereo not drawn) [Trolox, 6-hydroxy-2,5,7,8-tetramethylchromane-2-carboxylic acid, reference compound] | > 5.00
